1 molecule from BindingDB's records for doi:10.1021/jm800369f (Amgen, 2008) can be followed below.

For orientation: IC50 means the concentration that inhibits the measured activity by half.

For the experiment, the target named is Corticosteroid 11-beta-dehydrogenase isozyme 1. As to the kind of experiment: Inhibition of human recombinant 11beta-HSD1 expressed in Pichia pastoris.

Molecules are shown by their SMILES.

For the molecule `O=C(Nc1cccc(C(=O)N2CCC[C@H]3CCCC[C@@H]32)c1)c1ccccc1` [N-(3-((4aR,8aS)-decahydroquinoline-1-carbonyl)phenyl)benzamide], the IC50 stood at 14 nM.
